Assay results reported in publication PMC4965013, “Open Source Drug Discovery with the Malaria Box Compound Collection for Neglected Diseases and Beyond” (PLoS Pathogens, 2016).
pEC50: −log10 of the molar value.

What was measured:
P. falciparum = experiment: EC50 listed in S2 Table Metabolomics (used to set the concentration tested); format: cell-based; conditions: Plasmodium falciparum; EC50 used for Factor_XEC50 in metabolomics; read-out: EC50_nM
[1] = system: P. falciparum 3D7 trophozoites; experiment: Metabolomic fingerprint profiling LC-MS; format: cell-based, Plasmodium falciparum; set-up: UDP-D-glucose / ADP-D-glucose: unit not given here; conditions: for Acetyllysine / N-acetyl-L-ornithine / N-carbamoyl-L-aspartate / NADPH / dAMP / dCMP / dTDP / dTMP / dTTP / dihydroorotate / orotate / DLH / DLS/SDL/SID / PD / PEE / PVNF / 3-phosphoglycerate / ADP-D-glucose / ATP / CDP / D-sedoheptulose-1/7-phosphate / FAD / GMP / NAD+ / NADP+ / Octoluse Bisphosphate / Pyroglutamic acid / UDP-D-glucose / UDP-D-glucuronate / UDP-N-acetyl-glucosamine / UDP / UMP / UTP / a-ketoglutarate / citrate/isocitrate / cytidine / dATP / dGMP/AMP / fumarate / glucose-1/6-phosphate / glycerate / guanine / guanosine / hypoxanthine / indole / inosine / nicotinate / ornithine / phosphoenolpyruvate / pyruvate / ribose-phosphate / sarcosine/alanine / sn-glycerol-3-phosphate / succinate/methylmalonic acid / uridine / xanthosine: S2 Table Metabolomics; for Acetyllysine: metabolite Acetyllysine; for N-acetyl-L-ornithine: metabolite N-acetyl-L-ornithine; for N-carbamoyl-L-aspartate: metabolite N-carbamoyl-L-aspartate; for NADPH: metabolite NADPH; for dAMP: metabolite dAMP; for dCMP: metabolite dCMP; for dTDP: metabolite dTDP; for dTMP: metabolite dTMP; for dTTP: metabolite dTTP; for dihydroorotate: metabolite dihydroorotate; for orotate: metabolite orotate; for DLH: peptide DLH; for DLS/SDL/SID: peptide DLS/SDL/SID; for PD: peptide PD; for PEE: peptide PEE; for PVNF: peptide PVNF; for 3-phosphoglycerate: metabolite 3-phosphoglycerate; for ADP-D-glucose: metabolite ADP-D-glucose; for ATP: metabolite ATP; for CDP: metabolite CDP; for CDP / D-sedoheptulose-1/7-phosphate / GMP / Octoluse Bisphosphate / UDP / UMP / UTP / citrate/isocitrate / dGMP/AMP / fumarate / glucose-1/6-phosphate / glycerate / guanine / guanosine / inosine / pyruvate / sarcosine/alanine / succinate/methylmalonic acid / uridine / xanthosine: change in metabolite level after compound treatment; for D-sedoheptulose-1/7-phosphate: metabolite D-sedoheptulose-1/7-phosphate; for FAD: metabolite FAD; for GMP: metabolite GMP; for NAD+: metabolite NAD+; for NADP+: metabolite NADP+; for Octoluse Bisphosphate: metabolite Octoluse Bisphosphate; for Pyroglutamic acid: metabolite Pyroglutamic acid; for UDP-D-glucose: metabolite UDP-D-glucose; for UDP-D-glucuronate: metabolite UDP-D-glucuronate; for UDP-N-acetyl-glucosamine: metabolite UDP-N-acetyl-glucosamine; for UDP: metabolite UDP; for UMP: metabolite UMP; for UTP: metabolite UTP; for a-ketoglutarate: metabolite a-ketoglutarate; for citrate/isocitrate: metabolite citrate/isocitrate; for cytidine: metabolite cytidine; for dATP: metabolite dATP; for dGMP/AMP: metabolite dGMP/AMP; for fumarate: metabolite fumarate; for glucose-1/6-phosphate: metabolite glucose-1/6-phosphate; for glycerate: metabolite glycerate; for guanine: metabolite guanine; for guanosine: metabolite guanosine; for hypoxanthine: metabolite hypoxanthine; for indole: metabolite indole; for inosine: metabolite inosine; for 2_3-Diphosphoglyceric acid / 4-phosphopantothenate / 6-phospho-D-gluconate / FMN / IMP / Pyrophosphate / Sedoheptoluse bisphosphate / cyclic-AMP / glutathione disulfide / lactate / myo-inositol: metabolite level change after treatment; for nicotinate: metabolite nicotinate; for ornithine: metabolite ornithine; for phosphoenolpyruvate: metabolite phosphoenolpyruvate; for pyruvate: metabolite pyruvate; for ribose-phosphate: metabolite ribose-phosphate; for sarcosine/alanine: metabolite sarcosine/alanine; for sn-glycerol-3-phosphate: metabolite sn-glycerol-3-phosphate; for succinate/methylmalonic acid: metabolite succinate/methylmalonic acid; for uridine: metabolite uridine; for xanthosine: metabolite xanthosine

In the case of `CC1CCN(Cc2ccc(NC(=O)c3cc4ccc5cccnc5c4[nH]3)cc2)CC1` [MMV020549], the pEC50 (P. falciparum) was 6.56, the Acetyllysine [1] was -2.641 and the N-acetyl-L-ornithine [1] was -2.126. It also gave a N-carbamoyl-L-aspartate [1] of 2.423, an NADPH [1] of 1.7547 and a dAMP [1] of 0.4295. The dCMP [1] was 0.8562, the dTDP [1] was 0.3381 and the dTMP [1] was 0.4292. It also gave a dTTP [1] of 0.08993, a dihydroorotate [1] of 2.255 and an orotate [1] of 1.187. The DLH [1] was -1.428, the DLS/SDL/SID [1] was -2.953 and the PD [1] was -0.7061. It also gave a PEE [1] of -0.9939, a PVNF [1] of -1.512 and a 3-phosphoglycerate [1] of -0.1099. It also gave an ADP-D-glucose [1] of 0.08948, an ATP [1] of -0.07943 and a CDP [1] of 0.4826. It also gave a D-sedoheptulose-1/7-phosphate [1] of 0.04396, an FAD [1] of -0.01225 and a GMP [1] of -0.01756. The “NAD+” value [1] was -0.1491, the “NADP+” value [1] was 0.1203 and the “Octoluse Bisphosphate” value [1] was -0.3788. It also gave a Pyroglutamic acid [1] of -0.1503, a UDP-D-glucose [1] of -0.0815 and a UDP-D-glucuronate [1] of -0.1055. The UDP-N-acetyl-glucosamine [1] was -0.09535, the UDP [1] was 0.6579 and the UMP [1] was 0.21. The UTP [1] was 0.1832, the a-ketoglutarate [1] was -0.128 and the citrate/isocitrate [1] was -0.1069. It also gave a cytidine [1] of -0.1996, a dATP [1] of 0.1916 and a dGMP/AMP [1] of 0.3048. The fumarate [1] was 0.06488, the glucose-1/6-phosphate [1] was -0.4724 and the glycerate [1] was -0.06488. For the same compound, the guanine [1] was 0.773, the guanosine [1] was 1.397 and the hypoxanthine [1] was -0.1958. It also gave an indole [1] of -0.3017, an inosine [1] of -0.6136 and a 2_3-Diphosphoglyceric acid [1] of -0.02531. For the same compound, the 4-phosphopantothenate [1] was 0.1058, the 6-phospho-D-gluconate [1] was -0.03173 and the FMN [1] was 0.1472. The IMP [1] was 0.1864, the Pyrophosphate [1] was 0.03595 and the Sedoheptoluse bisphosphate [1] was 0.04232. For the same compound, the cyclic-AMP [1] was -0.09542, the glutathione disulfide [1] was -0.2786 and the lactate [1] was -0.1188. The myo-inositol [1] was -0.1919, the nicotinate [1] was 0.02078 and the ornithine [1] was 0.04846. The phosphoenolpyruvate [1] was -0.09349, the pyruvate [1] was -0.1796 and the ribose-phosphate [1] was -0.1444. It also gave a sarcosine/alanine [1] of -0.25, a sn-glycerol-3-phosphate [1] of -0.2777 and a succinate/methylmalonic acid [1] of -0.1252. For the same compound, the uridine [1] was 0.147 and the xanthosine [1] was -0.8804.
Work on `COc1ccc(Br)cc1C1Nc2ccc3ccccc3c2C2=C1C(=O)CC(c1ccccc1)C2` (stereo not shown) [MMV020885] yielded a pEC50 (P. falciparum) of 6.74, an Acetyllysine [1] of -0.2018 and a N-acetyl-L-ornithine [1] of 0.05879. For the same compound, the N-carbamoyl-L-aspartate [1] was 0.2499, the NADPH [1] was 0.3881 and the dAMP [1] was -0.07633. The dCMP [1] was -0.1829, the dTDP [1] was -0.08159 and the dTMP [1] was -0.06085. For the same compound, the dTTP [1] was 0.08356, the dihydroorotate [1] was 0.4211 and the orotate [1] was -0.07163. For the same compound, the DLH [1] was 0.1131, the DLS/SDL/SID [1] was 0.0252 and the PD [1] was -0.01204. For the same compound, the PEE [1] was -0.02185, the PVNF [1] was 0.06588 and the 3-phosphoglycerate [1] was 0.1773. The ADP-D-glucose [1] was 0.1062, the ATP [1] was 0.1529 and the CDP [1] was -0.1573. The D-sedoheptulose-1/7-phosphate [1] was -0.3333, the FAD [1] was 0.09744 and the GMP [1] was 0.2606. The “NAD+” value [1] was -0.4069, the “NADP+” value [1] was 0.1167 and the “Octoluse Bisphosphate” value [1] was 0.1001. The Pyroglutamic acid [1] was 0.05012, the UDP-D-glucose [1] was 0.09185 and the UDP-D-glucuronate [1] was 0.09622. The UDP-N-acetyl-glucosamine [1] was 0.0596, the UDP [1] was -0.2367 and the UMP [1] was 0.2791. The UTP [1] was -0.3268, the a-ketoglutarate [1] was 0.1759 and the citrate/isocitrate [1] was -0.004418. For the same compound, the cytidine [1] was -0.005151, the dATP [1] was 0.1038 and the dGMP/AMP [1] was -0.1164. It also gave a fumarate [1] of 0.1396, a glucose-1/6-phosphate [1] of 0.3285 and a glycerate [1] of 0.153. For the same compound, the guanine [1] was 0.03354, the guanosine [1] was 0.1241 and the hypoxanthine [1] was 0.09912. The indole [1] was 0.3168, the inosine [1] was 0.1551 and the 2_3-Diphosphoglyceric acid [1] was 0.06597. The 4-phosphopantothenate [1] was 0.04165, the 6-phospho-D-gluconate [1] was 0.04292 and the FMN [1] was 0.1362. It also gave an IMP [1] of 0.02368, a Pyrophosphate [1] of 0.2656 and a Sedoheptoluse bisphosphate [1] of 0.01639. It also gave a cyclic-AMP [1] of -0.09684, a glutathione disulfide [1] of 0.06546 and a lactate [1] of 0.1283. The myo-inositol [1] was 0.176, the nicotinate [1] was 0.1246 and the ornithine [1] was -0.2474. For the same compound, the phosphoenolpyruvate [1] was 0.1975, the pyruvate [1] was 0.1649 and the ribose-phosphate [1] was 0.4239. It also gave a sarcosine/alanine [1] of -0.04603, a sn-glycerol-3-phosphate [1] of 0.03018 and a succinate/methylmalonic acid [1] of 0.08193. It also gave a uridine [1] of 0.101 and a xanthosine [1] of 0.04674.
